For 20 compounds, IC50 results are on record in patent publication US20240150340A1, “CDK Inhibitors And Their Use As Pharmaceuticals” (Prelude Therapeutics Incorporated, priority 2022, published 2024).

One assay has as its system OVCAR3 p-RB. Put plainly: pRB ICW Assay in OVCAR3 Cells. Type of assay: cell-based. Conditions: Homo sapiens, OVCAR-3, incubated with compound for 2 hours. The procedure, abridged: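 OVCAR3 cells were treated 2 h at 37° C. with a 9-point half-log compound series, duplicate wells, with 10 μM reference compound as maximum inhibition. Fixed, permeabilized cells were stained with anti-phospho-RB plus DRAQ5 and imaged at 700/800 nm (In-Cell Western).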

Another assay concerns the target T1, CDK4/Cyclin D1 (Homo sapiens, UniProt P11802).
T1 construct: purchased ProQinase; host or cells: insect cell
Put plainly: CDK4/CyclinD1 Enzymatic Activity Assay (TR-FRET). Type of assay: biochemical. Conditions: ATP 2 mM final, read-out: CDK4_D1 IC50. The procedure, abridged:
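Insect-cell-expressed CDK4/Cyclin D1 (1 nM) with ULight-4E-BP1 (100 nM) and 2 mM ATP in HEPES pH 7.4; 9-dose 3-fold compound series preincubated 20 min, reaction started with 10 mM MgCl2, 45 min at 37° C. Europium anti-P-4E-BP1 TR-FRET read; IC50 from 4-parameter Hill fit.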

In the next assay the target is T2, CDK2/Cyclin E2 (Homo sapiens, UniProt P24941).
T2 construct: Recombinant protein complex CDK2/Cyclin E2, expressed from insect cell, was purchased from ProQinase
Put plainly: CDK2/CyclinE2 Enzymatic Activity Assay (TR-FRET). The class given is biochemical. Conditions: ATP 1 mM final, read-out: CDK2_E1 IC50. The procedure, abridged: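 Recombinant insect-cell CDK2/Cyclin E2 (1 nM) phosphorylated ULight-4E-BP1 (50 nM) with 1 mM ATP in HEPES pH 7.4 buffer, after 20 min compound preincubation; MgCl2 (10 mM) started the 45 min reaction at 37° C. Europium anti-phospho-4E-BP1 TR-FRET read; 9-dose IC50 by 4-parameter fit.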

T1 sequence (P11802 whole entry): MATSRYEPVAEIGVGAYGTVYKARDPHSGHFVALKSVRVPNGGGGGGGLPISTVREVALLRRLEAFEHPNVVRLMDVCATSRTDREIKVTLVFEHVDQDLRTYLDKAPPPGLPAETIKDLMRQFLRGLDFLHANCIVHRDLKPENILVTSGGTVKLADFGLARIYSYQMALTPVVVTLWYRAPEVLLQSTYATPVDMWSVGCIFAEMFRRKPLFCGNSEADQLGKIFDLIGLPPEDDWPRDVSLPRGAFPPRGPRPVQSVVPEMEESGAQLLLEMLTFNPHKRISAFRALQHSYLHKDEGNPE
T1 sequence (P24385 whole entry partner): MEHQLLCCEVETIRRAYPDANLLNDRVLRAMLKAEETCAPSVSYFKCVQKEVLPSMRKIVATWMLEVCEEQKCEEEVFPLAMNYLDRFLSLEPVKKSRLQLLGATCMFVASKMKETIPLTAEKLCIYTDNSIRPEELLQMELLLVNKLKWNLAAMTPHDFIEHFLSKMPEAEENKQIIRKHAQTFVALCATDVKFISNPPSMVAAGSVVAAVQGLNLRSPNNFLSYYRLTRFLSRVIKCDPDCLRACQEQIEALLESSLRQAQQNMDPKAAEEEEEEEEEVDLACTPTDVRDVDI

Regarding `CC(O)c1cnc(-c2nc(NC3CCN(S(=O)(=O)c4c[nH]cn4)CC3)ncc2C(F)(F)F)s1` (stereo not drawn) [Example 57, 1-(2-(2-((1-((1H-imidazol-4-yl)sulfonyl)piperidin-4-yl)amino)-5-(trifluoromethyl)pyrimidin-4-yl)thiazol-5-yl)ethan-1-ol], the half-maximal inhibitory concentration (IC50) in the assay with OVCAR3 p-RB, on CDK4/Cyclin D1 and on CDK2/Cyclin E2 was not above 100 nM in each case.
Regarding `CC(=O)c1cc(-c2nc(NC3CCN(S(=O)(=O)c4cnn(C)c4)CC3)ncc2C(F)(F)F)sc1C` [Example 81, 1-(2-methyl-5-(2-((1-((1-methyl-1H-pyrazol-4-yl)sulfonyl)piperidin-4-yl)amino)-5-(trifluoromethyl)pyrimidin-4-yl)thiophen-3-yl)ethan-1-one], the IC50 in the assay on OVCAR3 p-RB, at CDK4/Cyclin D1 and at CDK2/Cyclin E2 was not above 100 nM throughout.
In the case of `Cc1cnc(-c2nc(NC3CCN(S(=O)(=O)c4cnn(C)c4)CC3)ncc2C(F)(F)F)s1` [Example 2, N-(1-((1-methyl-1H-pyrazol-4-yl)sulfonyl)piperidin-4-yl)-4-(5-methylthiazol-2-yl)-5-(trifluoromethyl)pyrimidin-2-amine], the IC50 in the assay on OVCAR3 p-RB, on CDK4/Cyclin D1 and at CDK2/Cyclin E2 was not above 100 nM in each case.
On to `Cc1cnc(-c2nc(NC3CCN(S(C)(=O)=O)CC3)ncc2C(F)(F)F)s1` [Example 65, N-(1-(methylsulfonyl)piperidin-4-yl)-4-(5-methylthiazol-2-yl)-5-(trifluoromethyl)pyrimidin-2-amine], for which the IC50 with OVCAR3 p-RB is 100 to 500 nM; on CDK4/Cyclin D1, not above 100 nM; on CDK2/Cyclin E2, not above 100 nM.
Regarding `Cn1cc(S(=O)(=O)N2CCC(Nc3ncc(C(F)(F)F)c(-c4ncc(CC(C)(C)O)s4)n3)CC2)cn1` [Example 62, 2-methyl-1-(2-(2-((1-((1-methyl-1H-pyrazol-4-yl)sulfonyl)piperidin-4-yl)amino)-5-(trifluoromethyl)pyrimidin-4-yl)thiazol-5-yl)propan-2-ol], the IC50 in the assay with OVCAR3 p-RB, on CDK4/Cyclin D1 and on CDK2/Cyclin E2 was not above 100 nM each time.
In the case of `Cc1sc(-c2nc(N[C@H]3CCN(S(=O)(=O)c4cnn(C)c4)C[C@H]3C)ncc2C(F)(F)F)cc1C(N)=O` [Example 23, 2-methyl-5-(2-(((3R,4S)-3-methyl-1-((1-methyl-1H-pyrazol-4-yl)sulfonyl)piperidin-4-yl)amino)-5-(trifluoromethyl)pyrimidin-4-yl)thiophene-3-carboxamide], the IC50 with OVCAR3 p-RB, at CDK4/Cyclin D1 and at CDK2/Cyclin E2 was not above 100 nM each time.
With `Cc1sc(-c2nc(N[C@H]3CCN(S(=O)(=O)c4cnc(N)s4)C[C@H]3C)ncc2C(F)(F)F)cc1C#N` [Example 94, 5-(2-(((3R,4S)-1-((2-aminothiazol-5-yl)sulfonyl)-3-methylpiperidin-4-yl)amino)-5-(trifluoromethyl)pyrimidin-4-yl)-2-methylthiophene-3-carbonitrile], the results for the IC50 in the assay with OVCAR3 p-RB, on CDK4/Cyclin D1 and on CDK2/Cyclin E2 were 100 to 500 nM, more than 500 nM and not above 100 nM, respectively.
As for `C[C@@H]1CN(S(=O)(=O)c2cnn(C)c2)CC[C@@H]1Nc1ncc(C(F)(F)F)c(-c2cc(C(N)=O)c(CC(C)(C)O)s2)n1` [Example 44, 2-(2-hydroxy-2-methylpropyl)-5-(2-(((3R,4S)-3-methyl-1-((1-methyl-1H-pyrazol-4-yl)sulfonyl)piperidin-4-yl)amino)-5-(trifluoromethyl)pyrimidin-4-yl)thiophene-3-carboxamide], the half-inhibitory concentration (IC50) in the assay on OVCAR3 p-RB, at CDK4/Cyclin D1 and on CDK2/Cyclin E2 was not above 100 nM each time.
For the compound `Cn1cnc(S(=O)(=O)N2CC[C@@H](Nc3ncc(C(F)(F)F)c(-c4cc(C(N)=O)cs4)n3)[C@H](F)C2)c1` [Example 14, 5-(2-(((3R,4R)-3-fluoro-1-((1-methyl-1H-imidazol-4-yl)sulfonyl)piperidin-4-yl)amino)-5-(trifluoromethyl)pyrimidin-4-yl)thiophene-3-carboxamide], the figures for the half-maximal inhibitory concentration (IC50) with OVCAR3 p-RB, on CDK4/Cyclin D1 and at CDK2/Cyclin E2 were 100 to 500 nM, not above 100 nM and not above 100 nM, respectively.
As for `CC(O)c1cnc(-c2nc(NC3CCN(S(=O)(=O)c4cn(C)cn4)CC3)ncc2C(F)(F)F)s1` (stereo not drawn) [Example 63, 1-(2-(2-((1-((1-methyl-1H-imidazol-4-yl)sulfonyl)piperidin-4-yl)amino)-5-(trifluoromethyl)pyrimidin-4-yl)thiazol-5-yl)ethan-1-ol], the IC50 in the assay on OVCAR3 p-RB, on CDK4/Cyclin D1 and at CDK2/Cyclin E2 was not above 100 nM each time.
In the case of `Cn1cc(S(=O)(=O)N2CCC(Nc3ncc(C(F)(F)F)c(-c4cc(C#N)ns4)n3)CC2)cn1` [Example 91, 5-(2-((1-((1-methyl-1H-pyrazol-4-yl)sulfonyl)piperidin-4-yl)amino)-5-(trifluoromethyl)pyrimidin-4-yl)isothiazole-3-carbonitrile], the concentration for half-maximal inhibition (IC50) with OVCAR3 p-RB is 100 to 500 nM; on CDK4/Cyclin D1, 100 to 500 nM; at CDK2/Cyclin E2 it was not above 100 nM.
As to `Cc1sc(-c2nc(N[C@H]3CCN(S(=O)(=O)c4c[nH]cn4)C[C@H]3C)ncc2C(F)(F)F)cc1C(N)=O` [Example 25, 5-(2-(((3R,4S)-1-((1H-imidazol-4-yl)sulfonyl)-3-methylpiperidin-4-yl)amino)-5-(trifluoromethyl)pyrimidin-4-yl)-2-methylthiophene-3-carboxamide], the figures for the IC50 in the assay with OVCAR3 p-RB, at CDK4/Cyclin D1 and at CDK2/Cyclin E2 were 100 to 500 nM, not above 100 nM and not above 100 nM, respectively.
On to `Cn1cc(S(=O)(=O)N2CCC(Nc3ncc(C(F)(F)F)c(-c4cc(C(N)=O)cs4)n3)CC2)cn1` [Example 74, 5-(2-((1-((1-methyl-1H-pyrazol-4-yl)sulfonyl)piperidin-4-yl)amino)-5-(trifluoromethyl)pyrimidin-4-yl)thiophene-3-carboxamide], for which the 50% inhibitory concentration (IC50) in the assay on OVCAR3 p-RB, on CDK4/Cyclin D1 and at CDK2/Cyclin E2 was not above 100 nM each time.
As for `Cn1cc(S(=O)(=O)N2CCC(Nc3ncc(C(F)(F)F)c(-c4ncc(C(O)C(F)(F)F)s4)n3)CC2)cn1` (stereo not drawn) [Example 61, 2,2,2-trifluoro-1-(2-(2-((1-((1-methyl-1H-pyrazol-4-yl)sulfonyl)piperidin-4-yl)amino)-5-(trifluoromethyl)pyrimidin-4-yl)thiazol-5-yl)ethan-1-ol], the IC50 with OVCAR3 p-RB, at CDK4/Cyclin D1 and on CDK2/Cyclin E2 was not above 100 nM each time.
Take `Cn1cnc(S(=O)(=O)N2CC[C@H](Nc3ncc(C(F)(F)F)c(-c4cc(C(N)=O)c(CC(C)(C)O)s4)n3)[C@H](F)C2)c1` [Example 47, 5-(2-(((3R,4S)-3-fluoro-1-((1-methyl-1H-imidazol-4-yl)sulfonyl)piperidin-4-yl)amino)-5-(trifluoromethyl)pyrimidin-4-yl)-2-(2-hydroxy-2-methylpropyl)thiophene-3-carboxamide]: the IC50 was 100 to 500 nM in the assay on OVCAR3 p-RB, not above 100 nM on CDK4/Cyclin D1 and not above 100 nM on CDK2/Cyclin E2.
As for `Cc1sc(-c2nc(N[C@H]3CCN(S(=O)(=O)c4cnn(C)c4)C[C@H]3C)ncc2C(F)(F)F)cc1C#N` [Example 85, 2-methyl-5-(2-(((3R,4S)-3-methyl-1-((1-methyl-1H-pyrazol-4-yl)sulfonyl)piperidin-4-yl)amino)-5-(trifluoromethyl)pyrimidin-4-yl)thiophene-3-carbonitrile], the IC50 was 100 to 500 nM in the assay on OVCAR3 p-RB, 100 to 500 nM on CDK4/Cyclin D1 and not above 100 nM on CDK2/Cyclin E2.
On to `Cc1cc(-c2nc(NC3CCN(S(C)(=O)=O)CC3)ncc2C(F)(F)F)sn1` [Example 78, 4-(3-methylisothiazol-5-yl)-N-(1-(methylsulfonyl)piperidin-4-yl)-5-(trifluoromethyl)pyrimidin-2-amine], for which the IC50 was more than 500 nM in the assay with OVCAR3 p-RB, more than 500 nM at CDK4/Cyclin D1 and 100 to 500 nM on CDK2/Cyclin E2.
Take `Cc1sc(-c2nc(NC3CCN(S(=O)(=O)c4cnn(C)c4)CC3)ncc2C(F)(F)F)cc1C(F)F` [Example 79, 4-(4-(difluoromethyl)-5-methylthiophen-2-yl)-N-(1-((1-methyl-1H-pyrazol-4-yl)sulfonyl)piperidin-4-yl)-5-(trifluoromethyl)pyrimidin-2-amine]: the IC50 was 100 to 500 nM in the assay with OVCAR3 p-RB, not above 100 nM on CDK4/Cyclin D1 and not above 100 nM on CDK2/Cyclin E2.
On to `C[C@@H]1CN(S(=O)(=O)c2cn(C)cn2)CC[C@@H]1Nc1ncc(C(F)(F)F)c(-c2cc(C(N)=O)cs2)n1` [Example 20, 5-(2-(((3R,4S)-3-methyl-1-((1-methyl-1H-imidazol-4-yl)sulfonyl)piperidin-4-yl)amino)-5-(trifluoromethyl)pyrimidin-4-yl)thiophene-3-carboxamide], for which the results for the IC50 with OVCAR3 p-RB, at CDK4/Cyclin D1 and on CDK2/Cyclin E2 were 100 to 500 nM, not above 100 nM and not above 100 nM, respectively.
Turning to `Cn1cc(S(=O)(=O)N2CC[C@H](Nc3ncc(C(F)(F)F)c(-c4ncc(CC(C)(C)O)s4)n3)[C@H](F)C2)cn1` [Example 109, 1-(2-(2-(((3R,4S)-3-fluoro-1-((1-methyl-1H-pyrazol-4-yl)sulfonyl)piperidin-4-yl)amino)-5-(trifluoromethyl)pyrimidin-4-yl)thiazol-5-yl)-2-methylpropan-2-ol], the IC50 in the assay on OVCAR3 p-RB, at CDK4/Cyclin D1 and on CDK2/Cyclin E2 was not above 100 nM each time.
